Calls of active or inactive are those of the source. No cut-off for these calls is given here.
Tests used:
Saimiri [1] = assay: Antipsychotic activity in squirrel monkey assessed as inhibition of conditioned avoidance response measured as maximum number of shocks possible per 30 mins interval at 1 mg/kg, po administered followed by saline 15 mins later measured after 3 to 3.5 hrs of dosing; type: functional
Saimiri [2] = assay: Antipsychotic activity in squirrel monkey assessed as inhibition of conditioned avoidance response measured as maximum number of shocks possible per 30 mins interval at 1 mg/kg, po administered followed by saline 15 mins later measured after 0 to 0.5 hrs of dosing; type: functional
Saimiri [3] = assay: Antipsychotic activity in squirrel monkey assessed as inhibition of conditioned avoidance response measured as maximum number of shocks possible per 30 mins interval at 1 mg/kg, po administered followed by saline 15 mins later measured after 3.5 to 4 hrs of dosing; type: functional
Saimiri [4] = assay: Antipsychotic activity in squirrel monkey assessed as inhibition of conditioned avoidance response measured as maximum number of shocks possible per 30 mins interval at 1 mg/kg, po administered followed by saline 15 mins later measured after 1.5 to 2 hrs of dosing; type: functional
Saimiri [5] = assay: Antipsychotic activity in po dosed squirrel monkey assessed as inhibition of conditioned avoidance response measured as maximum number of shocks; type: functional
Saimiri [6] = assay: Antipsychotic activity in squirrel monkey assessed as inhibition of conditioned avoidance response measured as maximum number of shocks possible per 30 mins interval at 1 mg/kg, po administered followed by saline 15 mins later measured after 4 to 4.5 hrs of dosing; type: functional
Saimiri [7] = assay: Antipsychotic activity in squirrel monkey assessed as inhibition of conditioned avoidance response measured as maximum number of shocks possible per 30 mins interval at 1 mg/kg, po administered followed by saline 15 mins later measured after 2 to 2.5 hrs of dosing; type: functional
Saimiri [8] = assay: Antipsychotic activity in squirrel monkey assessed as inhibition of conditioned avoidance response measured as maximum number of shocks possible per 30 mins interval at 1 mg/kg, po administered followed by saline 15 mins later measured after 2.5 to 3 hrs of dosing; type: functional
Saimiri [9] = assay: Antipsychotic activity in squirrel monkey assessed as inhibition of conditioned avoidance response measured as maximum number of shocks possible per 30 mins interval at 1 mg/kg, po administered followed by saline 15 mins later measured after 1 to 1.5 hrs of dosing; type: functional
Saimiri [10] = assay: Antipsychotic activity in squirrel monkey assessed as inhibition of conditioned avoidance response measured as maximum number of shocks possible per 30 mins interval at 1 mg/kg, po administered followed by saline 15 mins later measured after 0.5 to 1 hrs of dosing; type: functional
Saimiri [11] = assay: Antipsychotic activity in squirrel monkey assessed as inhibition of conditioned avoidance response measured as maximum number of shocks possible per 30 mins interval at 1 mg/kg, po after 60 to 90 mins dosing; type: functional
Saimiri [12] = assay: Antipsychotic activity in squirrel monkey assessed as inhibition of conditioned avoidance response measured as maximum number of shocks possible per 30 mins interval at 1 mg/kg, po after 0 to 30 mins dosing; type: functional
Saimiri [13] = assay: Antipsychotic activity in squirrel monkey assessed as inhibition of conditioned avoidance response measured as maximum number of shocks possible per 30 mins interval at 3 mg/kg, po after 120 to 150 mins dosing; type: functional
Saimiri [14] = assay: Antipsychotic activity in squirrel monkey assessed as inhibition of conditioned avoidance response at 9 mg/kg, po; type: functional, organism-based; set-up: dose 9 mg/kg
Saimiri [15] = assay: Antipsychotic activity in squirrel monkey assessed as inhibition of conditioned avoidance response measured as maximum number of shocks possible per 30 mins interval at 1 mg/kg, po after 30 to 60 mins dosing; type: functional
Saimiri [16] = assay: Antipsychotic activity in squirrel monkey assessed as inhibition of conditioned avoidance response measured as maximum number of shocks possible per 30 mins interval at 3 mg/kg, po after 150 to 180 mins dosing; type: functional
Saimiri [17] = assay: Antipsychotic activity in squirrel monkey assessed as inhibition of conditioned avoidance response measured as maximum number of shocks possible per 30 mins interval at 3 mg/kg, po after 90 to 120 mins dosing; type: functional
Saimiri [18] = assay: Antipsychotic activity in squirrel monkey assessed as inhibition of conditioned avoidance response at 27 mg/kg, po; type: functional, organism-based; set-up: dose 27 mg/kg

FC(F)(F)Sc1ccc2c(c1)C(=C1CCN(CC3CC3)CC1)c1ccccc1C=C2.O=P(O)(O)O
%max (Saimiri [1]): 66.7% | %max (Saimiri [2]): 0% | %max (Saimiri [3]): 90% | %max (Saimiri [4]): 62% | ED50 (Saimiri [5]): 0.99 mg/kg | ED50 (Saimiri [5]; Saimiri, in Primates, po, read-out: ED50): 0.51 mg/kg | %max (Saimiri [6]): 82% | %max (Saimiri [7]): 65% | %max (Saimiri [8]): 69% | %max (Saimiri [9]): 61.3% | %max (Saimiri [10]): 9.6%

CN1CCC(=C2c3ccccc3C=Cc3ccc(SC(F)(F)F)cc32)CC1
%max (Saimiri [11]): 8% | %max (Saimiri [12]): 0% | %max (Saimiri [13]): 100% | inhibition (Saimiri [14]): inactive | %max (Saimiri [15]): 0.66% | %max (Saimiri [16]): 100% | %max (Saimiri [17]): 77.4%

FC(F)(F)Sc1ccc2c(c1)C(=C1CCN(CC3CC3)CC1)c1ccccc1C=C2
inhibition (Saimiri [18]): inactive
